Here are results for 13 compounds from US5378836A, “Rapamycin oximes and hydrazones” (American Home Products Corporation, priority 1993, dated 1995).

The IC50 is the concentration needed to halve the response being measured.

Structures can show the parent of a compound that is named as a salt. Where two headings read alike, the source gives them in different places. A value given as a limit tells only on which side of the number the result lay.

The test system of assay [1] is pinch skin graft from male BAB/c donors transplanted to male C3 H(H-2K) recipients. The assay can be described thus: survival time of a pinch skin graft. In kind it is in vivo, male C3 H(H-2K) recipients (mouse strain). The note with it: dose of 4 mg/kg, intraperitoneally or orally; untreated control usually rejected within 6-7 days. How it is done: (§1) Immunosuppressive activity for representative compounds of this invention was evaluated in an in vitro standard pharmacological test procedure to measure lymphocyte proliferation (LAF) and in an in vivo standard pharmacological test procedure which evaluated the survival time of a pinch skin graft.
Representative compounds of this invention were also evaluated in an in vivo test procedure designed to determine the survival time of pinch skin graft from male BAB/c donors transplanted to male C3 H(H-2K) recipients. The method is adapted from Billingham R. E. and Medawar P. B., J. Exp. Biol. 28:385-402, (1951). Briefly, a pinch skin graft from the donor was grafted on the dorsum of the recipient as a allograft, and an isograft was used as control in the same region. The recipients were treated with either varying concentrations of test compounds intraperitoneally or orally. Rapamycin was used as a test control. Untreated recipients serve as rejection control. The graft was monitored daily and observations were recorded until the graft became dry and formed a blackened scab. This was considered as the rejection day. The mean graft survival time (number of days±S.D.) of the drug treatment group was compared with the control group. […] Results are expressed as the mean survival time in days. Untreated (control) pinch skin grafts are usually rejected within 6-7 days. The results shown in Table 1 are based on a dose of 4 mg/kg of test compound. A survival time of 12.0±1.7 days was obtained for rapamycin at 4 mg/kg.

For another assay, the system named is IgE-like antibodies. The note with it: in vivo; cited from earlier work.
The conditions of assay [2]: alone or in combination with picibanil; cited from earlier work.
Assay [3] concerns experimental allergic encephalomyelitis model. Particulars: a model for multiple sclerosis; cited from earlier work.
Assay [4] relates to thymocytes (T-cell proliferation). The assay is described as follows: comitogen-induced thymocyte proliferation procedure (LAF). The format is cell-based, BALB/c mice. Particulars: Mus musculus; for IC50: Thymocyte, read-out: LAF IC50; for inhibition at 0.1 µM: T-cell, read-out: LAF % Inhib. (percent inhibition of T-cell proliferation). How it is done:
as §1
The comitogen-induced thymocyte proliferation procedure (LAF) was used as an in vitro measure of the immunosuppressive effects of representative compounds. Briefly, cells from the thymus of normal BALB/c mice are cultured for 72 hours with PHA and IL-1 and pulsed with tritiated thymidine during the last six hours. Cells are cultured with and without various concentrations of rapamycin, cyclosporin A, or test compound. Cells are harvested and incorporated radioactivity is determined. Inhibition of lymphoproliferation is assessed as percent change in counts per minute from non-drug treated controls. For each compound evaluated, rapamycin was also evaluated for the purpose of comparison. An IC50 was obtained for each test compound as well as for rapamycin.

The next assay has as its system Candida albicans. The note with it: both in vitro and in vivo; cited from earlier work.
Setting [5] is: thymus cells cultured 72 h with PHA and IL-1, tritiated thymidine during last six hours.

With `CO[C@H]1C[C@@H]2CC[C@@H](C)[C@@](O)(O2)C(=O)C(=O)N2CCCC[C@H]2C(=O)O[C@H]([C@H](C)C[C@@H]2CC[C@@H](O)[C@H](OC)C2)CC(=O)[C@H](C)/C=C(\C)[C@@H](O)[C@@H](OC)C(=O)[C@H](C)C[C@H](C)/C=C/C=C/C=C/1C` [rapamycin], the “Skin Graft mean survival time (days ± SD)” value in assay [1] turned out to be 12.0 ± 1.7 days. Further, the “inhibition of the formation of IgE-like antibodies” value with IgE-like antibodies is recorded as “effectively inhibited the formation of IgE-like antibodies”. The antitumor activity result in assay [2] is “has been shown to have antitumor activity”. For the same compound, the “effect in the experimental allergic encephalomyelitis model” value in assay [3] is “effective in the experimental allergic encephalomyelitis model”. In addition, the IC50 in assay [4] is 0.0004 to 0.0098 µM. For the same compound, the “antifungal activity, particularly against Candida albicans” value in the assay with Candida albicans is “found to have antifungal activity, particularly against Candida albicans, both in vitro and in vivo”.
On to `CO/N=C1/C[C@@H]([C@H](C)C[C@@H]2CC[C@@H](OC(=O)Nc3ccc([N+](=O)[O-])cc3)[C@H](OC)C2)OC(=O)[C@@H]2CCCCN2C(=O)C(=O)[C@]2(O)O[C@@H](CC[C@H]2C)C[C@H](OC)/C(C)=C/C=C/C=C/[C@@H](C)C[C@@H](C)C(=O)[C@H](OC)[C@H](O)/C(C)=C/[C@H]1C` [Example 13, Rapamycin (Z)-27-O-(methyl)oxime, 42-ester with 4-nitrophenylcarbamic acid], for which, in assay [4], the inhibition at 0.1 µM came out at 14%. Moreover, in assay [4] (setting [5]), the half-inhibitory concentration (IC50) was found to be 0.58 µM.
Regarding `CCOC(C)O[C@@H]1CC[C@@H](C[C@@H](C)[C@@H]2C/C(=N\OC)[C@H](C)/C=C(\C)[C@@H](O)[C@@H](OC)C(=O)[C@H](C)C[C@H](C)/C=C/C=C/C=C(\C)[C@@H](OC)C[C@@H]3CC[C@@H](C)[C@@](O)(O3)C(=O)C(=O)N3CCCC[C@H]3C(=O)O2)C[C@H]1OC` (stereo partly drawn) [Example 17, 42-O-(1-Ethoxy-ethyl)-rapamycin-(E)-27-O-(methyl)oxime], in assay [1], the “Skin Graft mean survival time (days ± SD)” value amounted to 7.8 ± 0.4 days. In addition, the inhibition at 0.1 µM in assay [4] came to 73%. Besides, the IC50 in assay [4] (setting [5]) amounted to 0.03 µM.
Consider `CO/N=C1\C[C@@H]([C@H](C)C[C@@H]2CC[C@@H](OS(=O)(=O)c3cccc4cccnc34)[C@H](OC)C2)OC(=O)[C@@H]2CCCCN2C(=O)C(=O)[C@]2(O)O[C@@H](CC[C@H]2C)C[C@H](OC)/C(C)=C/C=C/C=C/[C@@H](C)C[C@@H](C)C(=O)[C@H](OC)[C@H](O)/C(C)=C/[C@H]1C` [Example 11, Rapamycin (E)-27-O-(methyl)oxime, 42-ester with 8-quinolinesulfonic acid], for which, in assay [4], the inhibition at 0.1 µM came to 17%. In assay [4] (setting [5]), the IC50 was determined as 0.255 µM.
The corresponding values for `CO/N=C1/C[C@@H]([C@H](C)C[C@@H]2CC[C@@H](OS(=O)(=O)c3cccc4cccnc34)[C@H](OC)C2)OC(=O)[C@@H]2CCCCN2C(=O)C(=O)[C@]2(O)O[C@@H](CC[C@H]2C)C[C@H](OC)/C(C)=C/C=C/C=C/[C@@H](C)C[C@@H](C)C(=O)[C@H](OC)[C@H](O)/C(C)=C/[C@H]1C` [Example 12, Rapamycin (Z)-27-O-(methyl)oxime, 42-ester with 8-quinolinesulfonic acid] are 30% and 0.21 µM.
In the same order, the values of `CO/N=C1/C[C@@H]([C@H](C)C[C@@H]2CC[C@@H](OS(=O)(=O)c3ccc(C)cc3)[C@H](OC)C2)OC(=O)[C@@H]2CCCCN2C(=O)C(=O)[C@]2(O)O[C@@H](CC[C@H]2C)C[C@H](OC)/C(C)=C/C=C/C=C/[C@@H](C)C[C@@H](C)C(=O)[C@H](OC)[C@H](O)/C(C)=C/[C@H]1C` [Example 14, Rapamycin (Z)-27-O-(methyl)oxime, 42-ester with 4-methylbenzenesulfonic acid] are 20% and greater than 1 µM.
On to `CO[C@H]1C[C@@H]2CC[C@@H](C)[C@@](O)(O2)C(=O)C(=O)N2CCCC[C@H]2C(=O)O[C@H]([C@H](C)C[C@@H]2CC[C@@H](OS(=O)(=O)O)[C@H](OC)C2)CC(=NO)[C@H](C)/C=C(\C)[C@@H](O)[C@@H](OC)C(=O)[C@H](C)C[C@H](C)/C=C/C=C/C=C/1C` [Example 6, Rapamycin 27-oxime, 42-sulfate ester pyridine salt], for which, in assay [1], the “Skin Graft mean survival time (days ± SD)” value stood at 9.8 ± 0.4 days. Further, the inhibition at 0.1 µM in assay [4] stood at 71%.
Consider `CO[C@H]1C[C@@H]2CC[C@@H](C)[C@@](O)(O2)C(=O)C(=O)N2CCCC[C@H]2C(=O)O[C@H]([C@H](C)C[C@@H]2CC[C@@H](OC(N)=O)[C@H](OC)C2)CC(=NO)[C@H](C)/C=C(\C)[C@@H](O)[C@@H](OC)C(=O)[C@H](C)C[C@H](C)/C=C/C=C/C=C/1C` [Example 8, Rapamycin 27-oxime, 42-ester with carbamic acid], for which the “Skin Graft mean survival time (days ± SD)” value in assay [1] was found to be 7.0 ± 0.0 days. Moreover, in assay [4], the inhibition at 0.1 µM amounted to 87%. The 50% inhibitory concentration (IC50) in assay [4] (setting [5]) came out at 0.0139 µM.
In the case of `CCCCNC(=O)O[C@@H]1CC[C@@H](C[C@@H](C)[C@@H]2C/C(=N/OC)[C@H](C)/C=C(\C)[C@@H](O)[C@@H](OC)C(=O)[C@H](C)C[C@H](C)/C=C/C=C/C=C(\C)[C@@H](OC)C[C@@H]3CC[C@@H](C)[C@@](O)(O3)C(=O)C(=O)N3CCCC[C@H]3C(=O)O2)C[C@H]1OC` [Example 18, Rapamycin (Z)-27-O-(methyl)oxime-42-ester with butylcarbamic acid], the inhibition at 0.1 µM in assay [4] was 18%. Also, in assay [4] (setting [5]), the 50% inhibitory concentration (IC50) was 0.279 µM.
Turning to `CO[C@H]1C[C@@H]2CC[C@@H](C)[C@@](O)(O2)C(=O)C(=O)N2CCCC[C@H]2C(=O)O[C@H]([C@H](C)C[C@@H]2CC[C@@H](OC(=O)NCCc3ccccn3)[C@H](OC)C2)CC(=NO)[C@H](C)/C=C(\C)[C@@H](O)[C@@H](OC)C(=O)[C@H](C)C[C@H](C)/C=C/C=C/C=C/1C` [Example 2, Rapamycin 27-oxime, 42-ester with 2-(pyridin-2-yl)-ethyl-carbamic acid], in assay [1], the “Skin Graft mean survival time (days ± SD)” value was found to be 8.0 ± 0.6 days. For the same compound, the inhibition at 0.1 µM in assay [4] was found to be 94%. Moreover, the IC50 in assay [4] (setting [5]) was determined as 0.0006 µM.
Regarding `CCOC(C)O[C@@H]1CC[C@@H](C[C@@H](C)[C@@H]2C/C(=N/OC)[C@H](C)/C=C(\C)[C@@H](O)[C@@H](OC)C(=O)[C@H](C)C[C@H](C)/C=C/C=C/C=C(\C)[C@@H](OC)C[C@@H]3CC[C@@H](C)[C@@](O)(O3)C(=O)C(=O)N3CCCC[C@H]3C(=O)O2)C[C@H]1OC` (stereo partly drawn) [Example 16, 42-O-(1-Ethoxy-ethyl)-rapamycin-(Z)-27-O-(methyl)oxime], the inhibition at 0.1 µM in assay [4] turned out to be 47%. Moreover, in assay [4] (setting [5]), the IC50 was determined as 0.1 µM.
In the same order, the values of `CO[C@H]1C[C@@H]2CC[C@@H](C)[C@@](O)(O2)C(=O)C(=O)N2CCCC[C@H]2C(=O)O[C@H]([C@H](C)C[C@@H]2CC[C@@H](OC(=O)NCCO)[C@H](OC)C2)CC(=NO)[C@H](C)/C=C(\C)[C@@H](O)[C@@H](OC)C(=O)[C@H](C)C[C@H](C)/C=C/C=C/C=C/1C` [Example 4, Rapamycin 27-oxime, 42-ester with 2-hydroxyethyl carbamic acid] are 89% and 0.0178 µM.
Take `CO[C@H]1C[C@@H]2CC[C@@H](C)[C@@](O)(O2)C(=O)C(=O)N2CCCC[C@H]2C(=O)O[C@H]([C@H](C)C[C@@H]2CC[C@@H](OS(=O)(=O)c3cccc4cccnc34)[C@H](OC)C2)CC(=NO)[C@H](C)/C=C(\C)[C@@H](O)[C@@H](OC)C(=O)[C@H](C)C[C@H](C)/C=C/C=C/C=C/1C` [Example 10, Rapamycin 27-oxime, 42-ester with 8-quinolinesulfonic acid]: in assay [4], the inhibition at 0.1 µM turned out to be 20%. Also, the half-inhibitory concentration (IC50) in assay [4] (setting [5]) amounted to 0.3 µM.
